Assay results as given in patent publication US20080280999A1, “Process for Making Pharmaceutical Compositions with a Transient Plasticizer” (NOVARTIS AG, priority 2005, published 2008).
In brackets after ≈: the same amount, converted by molar mass.

Test: Solubility in water
Assay type: physicochemical
Procedure: As used herein, the term “poorly water-soluble” or “poorly soluble” refers to having a solubility in water at 20° C. of less than 1%, i.e., a “sparingly soluble to practically insoluble, or insoluble drug” as described in Remington, The Science and Practice of Pharmacy, 21st Edition, p. 212, D. B. Troy, Ed., Lippincott Williams & Wilkins (2005).

Row | Structure (SMILES) | solubility | solubility in water (in words)
1 | CN(Cc1ccccc1)C(=O)[C@H](Cc1ccc2ccccc2c1)N(C)C(=O)[C@@H]1CCCN1c1nc(=O)c2ccccc2[nH]1 | 10 µg/mL (≈ 17.4 µM) | –
2 | CC[C@@H]1/C=C(\C)C[C@H](C)C[C@H](OC)[C@H]2O[C@@](O)(C(=O)C(=O)N3CCCC[C@H]3C(=O)O[C@H](/C(C)=C/[C@@H]3CC[C@H](Cl)[C@H](OC)C3)[C@H](C)[C@@H](O)CC1=O)[C@H](C)C[C@@H]2OC [Pimecrolimus] | – | insoluble in water
